Test results reported in ChEMBL document CHEMBL4507258 (2021).

How the values were obtained:
[1] = biological target: D(3) dopamine receptor (Homo sapiens) (UniProt P35462); conditions: Compound concentration 10.0 uM
[2] = biological target: Protein-tyrosine kinase 2-beta (Homo sapiens) (UniProt Q14289); conditions: Compound concentration 1000.0 nM
[3] = biological target: Tyrosine-protein kinase ABL2 (Homo sapiens) (UniProt P42684); conditions: Compound concentration 1000.0 nM
[4] = biological target: Phosphatidylinositol 4,5-bisphosphate 3-kinase catalytic subunit gamma isoform (Homo sapiens) (UniProt P48736); conditions: Compound concentration 1000.0 nM
[5] = biological target: Rhodopsin kinase GRK1 (Homo sapiens) (UniProt Q15835); conditions: Compound concentration 1000.0 nM
[6] = biological target: Serine/threonine-protein kinase BRSK2 (Homo sapiens) (UniProt Q8IWQ3); conditions: Compound concentration 1000.0 nM
[7] = biological target: Serine/threonine-protein kinase PRP4 homolog (Homo sapiens) (UniProt Q13523); conditions: Compound concentration 1000.0 nM
[8] = biological target: Dual specificity protein kinase CLK3 (Homo sapiens) (UniProt P49761); conditions: Compound concentration 1000.0 nM
[9] = system: Phosphatidylinositol 4,5-bisphosphate 3-kinase catalytic subunit alpha isoform (Homo sapiens), P42336 [I800L]; conditions: Compound concentration 1000.0 nM
[10] = biological target: Mitotic checkpoint serine/threonine-protein kinase BUB1 (Homo sapiens) (UniProt O43683); conditions: Compound concentration 1000.0 nM
[11] = biological target: SNF-related serine/threonine-protein kinase (Homo sapiens) (UniProt Q9NRH2); conditions: Compound concentration 1000.0 nM
[12] = biological target: Mitogen-activated protein kinase 15 (Homo sapiens) (UniProt Q8TD08); conditions: Compound concentration 1000.0 nM
[13] = biological target: Atypical kinase COQ8B, mitochondrial (Homo sapiens) (UniProt Q96D53); conditions: Compound concentration 1000.0 nM
[14] = biological target: Cyclin-dependent kinase-like 5 (Homo sapiens) (UniProt O76039); conditions: Compound concentration 1000.0 nM
[15] = biological target: Kappa-type opioid receptor (Homo sapiens, UniProt P41145); conditions: Compound concentration 10.0 uM
[16] = biological target: Cyclin-dependent kinase 14 (Homo sapiens) (UniProt O94921); conditions: Compound concentration 1000.0 nM
[17] = biological target: Serine/threonine-protein kinase 17B (Homo sapiens) (UniProt O94768); conditions: Compound concentration 1000.0 nM
[18] = biological target: Proto-oncogene tyrosine-protein kinase Src (Homo sapiens) (UniProt P12931); conditions: Compound concentration 1000.0 nM
[19] = biological target: Tyrosine-protein kinase Fyn (Homo sapiens) (UniProt P06241); conditions: Compound concentration 1000.0 nM
[20] = biological target: Calcium/calmodulin-dependent protein kinase type II subunit delta (Homo sapiens) (UniProt Q13557); conditions: Compound concentration 1000.0 nM
[21] = biological target: Cyclin-dependent kinase 16 (Homo sapiens) (UniProt Q00536); conditions: Compound concentration 1000.0 nM
[22] = system: Receptor-type tyrosine-protein kinase FLT3 (Homo sapiens), P36888 [UNDEFINED MUTATION]; conditions: Compound concentration 1000.0 nM
[23] = biological target: Glycogen synthase kinase-3 beta (Homo sapiens) (UniProt P49841); conditions: Compound concentration 1000.0 nM
[24] = biological target: Ephrin type-A receptor 6 (Homo sapiens) (UniProt Q9UF33); conditions: Compound concentration 1000.0 nM
[25] = biological target: Epidermal growth factor receptor (Homo sapiens) (UniProt P00533); conditions: Compound concentration 1000.0 nM
[26] = biological target: Serine/threonine-protein kinase 32B (Homo sapiens) (UniProt Q9NY57); conditions: Compound concentration 1000.0 nM
[27] = biological target: Insulin-like growth factor 1 receptor (Homo sapiens) (UniProt P08069); conditions: Compound concentration 1000.0 nM
[28] = biological target: Phosphatidylinositol 5-phosphate 4-kinase type-2 beta (Homo sapiens) (UniProt P78356); conditions: Compound concentration 1000.0 nM
[29] = biological target: Dual specificity mitogen-activated protein kinase kinase 4 (Homo sapiens) (UniProt P45985); conditions: Compound concentration 1000.0 nM
[30] = biological target: NUAK family SNF1-like kinase 1 (Homo sapiens) (UniProt O60285); conditions: Compound concentration 1000.0 nM
[31] = biological target: 5-hydroxytryptamine receptor 1D (Homo sapiens) (UniProt P28221); conditions: Compound concentration 10.0 uM
[32] = biological target: Death-associated protein kinase 2 (Homo sapiens) (UniProt Q9UIK4); conditions: Compound concentration 1000.0 nM
[33] = biological target: Melatonin receptor type 1A (Homo sapiens) (UniProt P48039); assay: Melatonin ML1 receptor CEREP ligand profiling; conditions: Compound concentration 10.0 uM
[34] = biological target: T1, 5-hydroxytryptamine receptor 1A (Homo sapiens) (UniProt P08908); assay: 5-Hydroxytryptamine1A (h) CEREP ligand profiling; conditions: Compound concentration 10.0 uM
T1 sequence (whole entry): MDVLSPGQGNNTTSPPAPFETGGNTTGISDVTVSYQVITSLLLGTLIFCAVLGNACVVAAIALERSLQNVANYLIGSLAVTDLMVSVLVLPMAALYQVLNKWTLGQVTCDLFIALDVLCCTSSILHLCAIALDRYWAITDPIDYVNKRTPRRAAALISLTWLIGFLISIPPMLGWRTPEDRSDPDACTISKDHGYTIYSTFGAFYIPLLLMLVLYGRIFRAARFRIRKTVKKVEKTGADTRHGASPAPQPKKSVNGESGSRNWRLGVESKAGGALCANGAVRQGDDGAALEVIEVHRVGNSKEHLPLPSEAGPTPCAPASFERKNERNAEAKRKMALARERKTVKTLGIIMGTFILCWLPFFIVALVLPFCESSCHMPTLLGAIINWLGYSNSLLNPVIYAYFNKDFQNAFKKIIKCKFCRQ

[35] = biological target: Muscarinic acetylcholine receptor M3 (Homo sapiens) (UniProt P20309); assay: Muscarinic M3 receptors (h) CEREP ligand profiling; conditions: Compound concentration 10.0 uM
[36] = biological target: Substance-P receptor (Homo sapiens) (UniProt P25103); assay: Neurokinin-1 receptor (h) CEREP ligand profiling; conditions: Compound concentration 10.0 uM

Chain of Glycogen synthase kinase-3 beta (Homo sapiens) (P49841 whole entry, looked up): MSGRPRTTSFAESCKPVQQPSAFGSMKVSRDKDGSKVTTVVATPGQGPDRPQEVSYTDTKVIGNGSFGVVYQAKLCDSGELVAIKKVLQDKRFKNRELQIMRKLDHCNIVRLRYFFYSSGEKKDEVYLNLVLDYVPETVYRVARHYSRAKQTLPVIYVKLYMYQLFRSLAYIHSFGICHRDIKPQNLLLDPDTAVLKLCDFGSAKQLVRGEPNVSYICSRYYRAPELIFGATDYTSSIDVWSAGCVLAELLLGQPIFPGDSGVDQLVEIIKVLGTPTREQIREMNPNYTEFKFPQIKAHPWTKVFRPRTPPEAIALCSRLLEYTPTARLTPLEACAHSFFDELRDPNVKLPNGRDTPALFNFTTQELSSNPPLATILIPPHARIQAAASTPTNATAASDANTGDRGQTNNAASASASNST
Chain of Receptor-type tyrosine-protein kinase FLT3 (Homo sapiens), P36888 [UNDEFINED MUTATION] (P36888 whole entry, looked up, change not shown): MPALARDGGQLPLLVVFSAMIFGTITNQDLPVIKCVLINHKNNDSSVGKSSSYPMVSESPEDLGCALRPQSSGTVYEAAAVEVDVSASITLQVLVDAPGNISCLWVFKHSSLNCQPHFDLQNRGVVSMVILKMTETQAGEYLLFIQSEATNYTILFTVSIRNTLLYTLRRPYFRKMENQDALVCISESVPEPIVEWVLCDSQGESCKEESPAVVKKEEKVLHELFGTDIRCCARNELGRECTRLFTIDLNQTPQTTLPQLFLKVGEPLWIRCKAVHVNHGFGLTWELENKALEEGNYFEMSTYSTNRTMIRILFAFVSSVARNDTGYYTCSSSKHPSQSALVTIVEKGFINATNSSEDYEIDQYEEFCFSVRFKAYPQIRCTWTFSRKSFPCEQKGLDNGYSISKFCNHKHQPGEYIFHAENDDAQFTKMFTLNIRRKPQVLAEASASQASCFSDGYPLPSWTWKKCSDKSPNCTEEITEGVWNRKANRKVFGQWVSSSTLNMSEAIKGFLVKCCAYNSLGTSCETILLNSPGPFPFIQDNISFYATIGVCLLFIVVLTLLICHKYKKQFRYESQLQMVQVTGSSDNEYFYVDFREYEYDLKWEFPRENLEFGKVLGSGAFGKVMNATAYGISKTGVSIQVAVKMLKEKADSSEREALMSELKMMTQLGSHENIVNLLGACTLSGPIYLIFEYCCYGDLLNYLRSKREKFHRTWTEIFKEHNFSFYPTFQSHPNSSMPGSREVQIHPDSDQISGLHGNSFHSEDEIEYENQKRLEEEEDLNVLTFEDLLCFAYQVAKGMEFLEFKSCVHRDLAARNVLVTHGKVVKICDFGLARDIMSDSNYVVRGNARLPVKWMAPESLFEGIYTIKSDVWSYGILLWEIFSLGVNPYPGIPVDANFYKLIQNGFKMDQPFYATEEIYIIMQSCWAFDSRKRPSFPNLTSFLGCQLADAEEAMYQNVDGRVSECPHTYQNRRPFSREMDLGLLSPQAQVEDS
Chain of NUAK family SNF1-like kinase 1 (Homo sapiens) (O60285 whole entry): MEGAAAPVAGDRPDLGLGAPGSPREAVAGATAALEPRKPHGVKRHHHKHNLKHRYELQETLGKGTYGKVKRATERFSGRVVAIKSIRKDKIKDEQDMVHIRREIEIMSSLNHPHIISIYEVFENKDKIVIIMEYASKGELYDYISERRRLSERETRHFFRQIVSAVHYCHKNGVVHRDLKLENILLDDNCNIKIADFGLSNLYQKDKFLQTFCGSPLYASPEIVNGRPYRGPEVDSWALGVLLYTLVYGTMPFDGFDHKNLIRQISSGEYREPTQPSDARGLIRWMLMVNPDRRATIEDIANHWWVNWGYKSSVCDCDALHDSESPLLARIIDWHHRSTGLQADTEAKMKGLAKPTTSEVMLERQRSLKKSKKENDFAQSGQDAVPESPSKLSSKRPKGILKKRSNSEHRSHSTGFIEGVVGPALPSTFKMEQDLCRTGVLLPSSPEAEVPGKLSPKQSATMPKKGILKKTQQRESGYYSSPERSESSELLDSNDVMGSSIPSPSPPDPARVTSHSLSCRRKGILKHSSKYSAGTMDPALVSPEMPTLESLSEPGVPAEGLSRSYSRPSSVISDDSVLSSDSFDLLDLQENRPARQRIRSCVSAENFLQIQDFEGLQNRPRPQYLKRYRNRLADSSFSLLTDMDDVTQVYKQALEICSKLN
Chain of Serine/threonine-protein kinase 17B (Homo sapiens) (O94768 whole entry): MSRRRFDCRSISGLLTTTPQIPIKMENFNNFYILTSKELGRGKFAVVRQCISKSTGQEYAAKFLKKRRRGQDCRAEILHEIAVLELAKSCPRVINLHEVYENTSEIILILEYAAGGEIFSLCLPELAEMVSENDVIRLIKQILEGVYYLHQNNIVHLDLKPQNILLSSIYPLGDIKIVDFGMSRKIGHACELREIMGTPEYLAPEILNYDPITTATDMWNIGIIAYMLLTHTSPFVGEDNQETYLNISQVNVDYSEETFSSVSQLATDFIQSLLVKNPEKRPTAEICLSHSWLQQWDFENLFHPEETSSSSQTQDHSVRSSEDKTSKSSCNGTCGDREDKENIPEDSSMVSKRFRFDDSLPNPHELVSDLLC
Chain of Atypical kinase COQ8B, mitochondrial (Homo sapiens) (Q96D53 whole entry): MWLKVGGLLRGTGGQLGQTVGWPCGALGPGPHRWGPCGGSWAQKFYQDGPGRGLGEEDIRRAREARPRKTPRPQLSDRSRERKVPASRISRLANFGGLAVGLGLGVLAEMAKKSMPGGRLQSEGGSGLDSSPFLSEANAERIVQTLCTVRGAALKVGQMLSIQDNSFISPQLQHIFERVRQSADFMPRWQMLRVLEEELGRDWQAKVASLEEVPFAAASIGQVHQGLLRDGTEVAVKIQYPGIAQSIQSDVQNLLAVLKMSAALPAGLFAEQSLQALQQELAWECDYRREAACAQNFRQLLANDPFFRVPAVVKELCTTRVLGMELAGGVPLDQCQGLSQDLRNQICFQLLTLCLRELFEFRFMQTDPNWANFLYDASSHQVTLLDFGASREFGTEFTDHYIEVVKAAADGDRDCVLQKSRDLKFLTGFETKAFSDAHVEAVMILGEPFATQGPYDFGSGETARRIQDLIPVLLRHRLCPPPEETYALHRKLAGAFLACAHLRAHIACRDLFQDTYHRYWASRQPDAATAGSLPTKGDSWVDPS
Chain of Serine/threonine-protein kinase BRSK2 (Homo sapiens) (Q8IWQ3 whole entry): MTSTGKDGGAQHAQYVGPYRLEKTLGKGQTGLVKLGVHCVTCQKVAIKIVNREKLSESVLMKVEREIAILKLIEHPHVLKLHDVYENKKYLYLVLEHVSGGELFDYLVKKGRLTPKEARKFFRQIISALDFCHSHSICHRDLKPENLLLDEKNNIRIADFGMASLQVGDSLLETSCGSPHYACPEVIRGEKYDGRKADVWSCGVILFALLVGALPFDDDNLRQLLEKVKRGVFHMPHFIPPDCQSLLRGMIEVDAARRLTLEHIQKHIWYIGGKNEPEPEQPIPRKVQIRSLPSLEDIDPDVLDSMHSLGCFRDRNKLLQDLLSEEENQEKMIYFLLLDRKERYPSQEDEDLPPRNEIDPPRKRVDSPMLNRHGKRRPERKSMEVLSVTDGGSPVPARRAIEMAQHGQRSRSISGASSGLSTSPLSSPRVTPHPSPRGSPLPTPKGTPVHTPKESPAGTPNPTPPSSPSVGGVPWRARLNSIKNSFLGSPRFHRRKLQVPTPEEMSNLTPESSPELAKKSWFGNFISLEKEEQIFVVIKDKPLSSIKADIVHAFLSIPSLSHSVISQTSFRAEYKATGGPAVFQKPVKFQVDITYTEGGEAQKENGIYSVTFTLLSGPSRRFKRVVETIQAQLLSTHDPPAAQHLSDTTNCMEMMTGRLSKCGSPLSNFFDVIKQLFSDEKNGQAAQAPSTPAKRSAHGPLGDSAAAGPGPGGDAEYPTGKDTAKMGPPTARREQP
Chain of Kappa-type opioid receptor (P41145 whole entry): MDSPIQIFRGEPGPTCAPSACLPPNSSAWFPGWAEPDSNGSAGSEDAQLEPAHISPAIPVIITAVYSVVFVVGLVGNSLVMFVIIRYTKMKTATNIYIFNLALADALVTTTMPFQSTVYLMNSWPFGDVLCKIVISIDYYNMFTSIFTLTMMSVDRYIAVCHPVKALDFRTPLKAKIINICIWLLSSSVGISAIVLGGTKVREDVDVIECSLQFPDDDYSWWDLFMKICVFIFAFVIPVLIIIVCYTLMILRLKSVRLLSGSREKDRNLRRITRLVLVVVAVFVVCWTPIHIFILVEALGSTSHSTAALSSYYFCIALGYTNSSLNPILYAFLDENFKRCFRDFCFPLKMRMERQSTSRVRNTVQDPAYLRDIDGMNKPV
Chain of Dual specificity mitogen-activated protein kinase kinase 4 (Homo sapiens) (P45985 whole entry): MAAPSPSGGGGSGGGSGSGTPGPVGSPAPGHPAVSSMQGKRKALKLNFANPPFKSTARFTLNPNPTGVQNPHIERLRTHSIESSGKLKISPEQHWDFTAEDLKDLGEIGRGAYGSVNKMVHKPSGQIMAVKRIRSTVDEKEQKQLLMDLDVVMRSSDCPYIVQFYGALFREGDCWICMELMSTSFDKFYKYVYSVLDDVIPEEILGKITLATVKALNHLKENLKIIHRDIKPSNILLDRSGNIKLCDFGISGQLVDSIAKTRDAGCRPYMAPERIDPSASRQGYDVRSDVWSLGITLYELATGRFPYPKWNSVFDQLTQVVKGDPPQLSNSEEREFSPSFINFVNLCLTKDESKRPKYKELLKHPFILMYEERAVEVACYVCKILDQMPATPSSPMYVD
Chain of Dual specificity protein kinase CLK3 (Homo sapiens) (P49761 whole entry, looked up, canonical isoform): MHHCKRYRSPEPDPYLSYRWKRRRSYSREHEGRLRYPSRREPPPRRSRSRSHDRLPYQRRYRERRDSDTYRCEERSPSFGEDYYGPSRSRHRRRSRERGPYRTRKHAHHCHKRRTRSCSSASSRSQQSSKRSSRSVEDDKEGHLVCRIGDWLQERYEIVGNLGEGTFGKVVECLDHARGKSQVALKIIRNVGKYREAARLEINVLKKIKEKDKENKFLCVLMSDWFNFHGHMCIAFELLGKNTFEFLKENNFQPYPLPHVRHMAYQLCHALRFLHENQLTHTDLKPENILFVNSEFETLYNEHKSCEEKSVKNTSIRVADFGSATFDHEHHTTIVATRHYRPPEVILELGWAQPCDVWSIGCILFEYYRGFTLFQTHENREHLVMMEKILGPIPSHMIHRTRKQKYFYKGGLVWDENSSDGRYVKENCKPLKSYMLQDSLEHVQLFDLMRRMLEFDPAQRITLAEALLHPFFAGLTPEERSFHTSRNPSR

| Compound | inhibition [1] | residual activity [2] | residual activity [3] | residual activity [4] | residual activity [5] | residual activity [6] | residual activity [7] | residual activity [8] | residual activity [9] | residual activity [10] | residual activity [11] | residual activity [12] | residual activity [13] | residual activity [14] | inhibition [15] | residual activity [16] | residual activity [17] | residual activity [18] | residual activity [19] | residual activity [20] | other results |
| --- | --- | --- | --- | --- | --- | --- | --- | --- | --- | --- | --- | --- | --- | --- | --- | --- | --- | --- | --- | --- | --- |
| CCCCN(CCCC)C(=O)CN1C[C@@H](c2cc(OC)c3c(c2)OCO3)[C@H](C(=O)O)[C@H]1CC(C)(C)CCC [A-545] | 16.6% | 93.4% | 100% | 90.8% | 100% | 98.3% | 99.3% | 100% | 100% | 94.9% | 98.4% | 100% | 80.2% | 100% | 69.9% | 100% | 100% | 75.2% | 99.1% | 99.9% | residual activity [21]: 100%; residual activity [22]: 99.1%; residual activity [23]: 100%; residual activity [24]: 100%; residual activity [25]: 100%; residual activity [26]: 98.4%; residual activity [27]: 97%; residual activity [28]: 59.8%; residual activity [29]: 93.3%; residual activity [30]: 82.4%; inhibition [31]: -3.72%; residual activity [32]: 99.6% |
| CCCCN(CCCC)C(=O)CN1C[C@H](c2cc(OC)c3c(c2)OCO3)[C@@H](C(=O)O)[C@@H]1CC(C)(C)CCC [ABT-546] | 17.3% | 100% | 100% | 76.9% | 71.9% | 95.6% | 100% | 100% | 52.9% | 75.4% | 100% | 100% | 0% | 71.4% | -1.47% | 100% | 100% | 100% | 100% | 100% | inhibition [33]: 12%; inhibition [34]: < 10%; inhibition [35]: < 10%; residual activity [21]: 74.8%; residual activity [22]: 90.6%; residual activity [23]: 100%; residual activity [24]: 100%; inhibition [36]: < 10%; residual activity [25]: 95.1%; residual activity [26]: 81.7%; residual activity [27]: 100%; residual activity [28]: 100%; residual activity [29]: 74.4%; residual activity [30]: 100%; residual activity [32]: 100% |
